Our source for the IC50 values is patent US8193189B2, “Quinoxaline derivatives as tyrosine kinase activity inhibitors” (Novartis AG, priority 2007, dated 2012).

Structures are written as SMILES. pIC50: −log10 of the molar value.

Test [1] concerns the target T1, GST-JAK2(808-1132) (Homo sapiens, UniProt O60674).
T1 construct: GST-JAK2(808-1132); purchased Invitrogen (Carlsbad, USA) #4288
In words: EPK JAK-family kinases profiling assay (Caliper mobility shift), JAK2. The conditions noted are these: ATP 20 μM, 1.8 nM kinase. It is filed as biochemical. An outline of the steps:
(§1)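 Turnover was read as substrate/product ratio after mobility-shift capillary-like separation of each reaction, run for 60 min at 30 °C with GST-tagged kinase domain, labelled peptide and ATP, and terminated with EDTA stop buffer.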

In test [2] the target is T2, GST-JAK3(811-1124) (Homo sapiens, UniProt P52333).
T2 construct: GST-JAK3(811-1124); made in house
Put plainly: EPK JAK-family kinases profiling assay (Caliper mobility shift), JAK3. The note with it: ATP 80 μM, 6 nM kinase. The test is classed as biochemical. An outline of the steps:
as §1

Test [3] deals with JAK/STAT pathway (JAK1/JAK2-dependent nuclear translocation of STAT1-GFP). In words: Inhibition of the JAK/STAT pathway: IFN-γ stimulated nuclear translocation of STAT1-GFP in HT1080 fibrosarcoma cells. The test is classed as cell-based. The note with it: Homo sapiens, HT-1080; HT1080 STAT1-GFP cells, 100 ng/ml IFN-γ 2 hours, compound added 30 min before; read-out: STAT1translo IC50. A digest of the protocol: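 HT1080 cells stably expressing STAT1-GFP, compounds added 30 min before IFN-γ stimulation at final 10 μM down to 0.003 μM (0.1% DMSO). Nuclear-cytoplasmic GFP intensity differential quantified by automated imaging with Hoechst nuclear mask, ≥1000 cells per well, averaged per well.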

Test [4] concerns the target T3, GST-TYK2(888-1187) (Homo sapiens, UniProt P29597).
T3 construct: GST-TYK2(888-1187); made in house
T3 sequence (P29597 888-1187): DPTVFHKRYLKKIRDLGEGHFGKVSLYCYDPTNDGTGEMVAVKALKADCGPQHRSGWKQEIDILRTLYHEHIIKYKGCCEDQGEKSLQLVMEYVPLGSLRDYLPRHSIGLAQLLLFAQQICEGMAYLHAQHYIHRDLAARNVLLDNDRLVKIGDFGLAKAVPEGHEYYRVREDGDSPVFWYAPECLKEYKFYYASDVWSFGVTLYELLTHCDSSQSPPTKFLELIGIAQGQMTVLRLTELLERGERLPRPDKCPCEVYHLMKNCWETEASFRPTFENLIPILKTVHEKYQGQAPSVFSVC
In words: EPK JAK-family kinases profiling assay (Caliper mobility shift), TYK2. The conditions noted are these: ATP 30 μM, 40 nM kinase. It is filed as biochemical. A digest of the protocol: as §1

Test [5] addresses T4, GST-JAK1(866-1154) (Homo sapiens, UniProt P23458).
T4 construct: GST-JAK1(866-1154); made in house
Put plainly: EPK JAK-family kinases profiling assay (Caliper mobility shift), JAK1. The test is classed as biochemical. The note with it: ATP 40 μM, 50 nM kinase. An outline of the steps:
as §1

T4 sequence (P23458 866-1154): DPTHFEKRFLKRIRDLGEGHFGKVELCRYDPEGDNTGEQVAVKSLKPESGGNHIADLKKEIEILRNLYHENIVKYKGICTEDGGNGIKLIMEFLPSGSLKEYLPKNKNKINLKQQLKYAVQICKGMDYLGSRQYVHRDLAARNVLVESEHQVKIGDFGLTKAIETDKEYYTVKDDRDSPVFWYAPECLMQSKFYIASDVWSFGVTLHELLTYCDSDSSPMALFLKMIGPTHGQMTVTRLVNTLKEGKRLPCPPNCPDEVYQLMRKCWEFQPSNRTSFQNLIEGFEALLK
T1 sequence (O60674 808-1132): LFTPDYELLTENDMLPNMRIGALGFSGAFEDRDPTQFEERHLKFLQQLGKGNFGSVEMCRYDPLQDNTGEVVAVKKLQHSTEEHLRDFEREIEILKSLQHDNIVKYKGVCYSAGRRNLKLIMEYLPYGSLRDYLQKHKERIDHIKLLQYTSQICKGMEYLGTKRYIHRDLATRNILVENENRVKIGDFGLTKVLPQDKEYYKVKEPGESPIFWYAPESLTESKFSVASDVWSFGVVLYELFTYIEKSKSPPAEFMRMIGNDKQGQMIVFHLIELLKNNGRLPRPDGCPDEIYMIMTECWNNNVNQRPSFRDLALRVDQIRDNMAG
T2 sequence (P52333 811-1124): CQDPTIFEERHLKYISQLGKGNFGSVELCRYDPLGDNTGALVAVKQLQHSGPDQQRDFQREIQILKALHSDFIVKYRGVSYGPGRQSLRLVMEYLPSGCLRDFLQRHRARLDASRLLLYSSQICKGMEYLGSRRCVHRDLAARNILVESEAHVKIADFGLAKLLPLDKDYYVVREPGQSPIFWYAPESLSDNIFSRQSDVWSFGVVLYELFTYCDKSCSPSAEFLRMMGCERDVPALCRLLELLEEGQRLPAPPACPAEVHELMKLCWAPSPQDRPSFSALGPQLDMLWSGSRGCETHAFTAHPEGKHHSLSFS

Consider `Cc1cc(-c2cnc3cccc(-c4cc(F)c(CN5CCS(=O)(=O)CC5)c(F)c4)c3n2)ccc1C(=O)N1CCN(C)CC1` [Example 44, (4-{8-[4-(1,1-Dioxido-thiomorpholin-4-ylmethyl)-3,5-difluoro-phenyl]-quinoxalin-2-yl}-2-methyl-phenyl)-(4-methyl-piperazin-1-yl)-methanone], for which the negative-log IC50 (pIC50) in test [1] is 8.18; in test [2], 6.39; in test [3], 7.31; in test [4] it was 6.62; in test [5] it was 6.82.

As for `COCCOc1ccc(-c2cnc3cccc(-c4cc(F)c(CN5CCOCC5)c(F)c4)c3n2)cc1OC` [Example 50, 8-(3,5-Difluoro-4-morpholin-4-ylmethyl-phenyl)-2-[3-methoxy-4-(2-methoxy-ethoxy)-phenyl]-quinoxaline], the pIC50 is 8.15 in test [1]; < 5.00 in test [2]; 5.78 in test [3]; 5.80 in test [4]; 7.42 in test [5].

Consider `COCCOc1ccc(-c2cnc3cccc(-c4ccc(CN5CCOCC5)c(F)c4)c3n2)cc1OC` [Example 51, 8-(3-Fluoro-4-morpholin-4-ylmethyl-phenyl)-2-[3-methoxy-4-(2-methoxy-ethoxy)-phenyl]-quinoxaline], for which the pIC50 in test [1] was 7.50; in test [2], < 5.00; in test [3], 5.69; in test [4], < 5.00; in test [5], 6.92.

On to `COCCOc1ccc(-c2cnc3cccc(-c4ccc(CN5CCS(=O)(=O)CC5)c(C)c4)c3n2)cc1OC` [Example 52, 8-[4-(1,1-Dioxido-thiomorpholin-4-ylmethyl)-3-methyl-phenyl]-2-[3-methoxy-4-(2-methoxy-ethoxy)-phenyl]-quinoxaline], for which the pIC50 in test [1] is 7.49; in test [2], 5.96; in test [3], 5.53; in test [4], 6.01; in test [5], 7.01.

For the compound `COCCOc1ccc(-c2cnc3cccc(-c4cc(F)c(CN5CCS(=O)(=O)CC5)c(F)c4)c3n2)cc1OC` [Example 53, 8-[4-(1,1-Dioxido-thiomorpholin-4-ylmethyl)-3,5-difluoro-phenyl]-2-[3-methoxy-4-(2-methoxy-ethoxy)-phenyl]-quinoxaline], the pIC50 in test [1] was > 8.52; in test [2], 6.67; in test [3], 6.82; in test [4] it was 7.03; in test [5] it was 7.92.

`Cc1cc(-c2cnc3cccc(-c4ccc(CN5CCS(=O)(=O)CC5)cc4)c3n2)ccc1C(=O)N1CCOCC1` [Example 63, (4-{8-[4-(1,1-Dioxido-thiomorpholin-4-ylmethyl)-phenyl]-quinoxalin-2-yl}-2-methyl-phenyl)-morpholin-4-yl-methanone]: the pIC50 in test [1] is 7.11; in test [2], 5.37; in test [3] it was 6.01; in test [4] it was 5.84; in test [5] it was 6.43.

On to `Cc1cc(-c2cnc3cccc(-c4cc(F)c(CN5CCS(=O)(=O)CC5)c(F)c4)c3n2)ccc1C(=O)N1CCOCC1` [Example 64, (4-{8-[4-(1,1-Dioxido-thiomorpholin-4-ylmethyl)-3,5-difluoro-phenyl]-quinoxalin-2-yl}-2-methyl-phenyl)-morpholin-4-yl-methanone], for which the pIC50 in test [1] was 8.31; in test [2], 6.54; in test [3], 7.33; in test [4], 6.78; in test [5], 7.17.

Turning to `Cc1cc(-c2cnc3cccc(-c4ccc(CN5CCS(=O)(=O)CC5)c(C)c4)c3n2)ccc1CN1CCOCC1` [Example 70, 8-[4-(1,1-Dioxido-thiomorpholin-4-ylmethyl)-3-methyl-phenyl]-2-(3-methyl-4-morpholin-4-ylmethyl-phenyl)-quinoxaline], the pIC50 in test [1] was 7.52; in test [2], 5.76; in test [3], 6.25; in test [4] it was 5.87; in test [5], 6.44.

Take `Cc1cc(-c2cnc3cccc(-c4cc(F)c(CN5CCOCC5)c(F)c4)c3n2)ccc1CN1CCOCC1` [Example 71, 8-(3,5-Difluoro-4-morpholin-4-ylmethyl-phenyl)-2-(3-methyl-4-morpholin-4-ylmethyl-phenyl)-quinoxaline]: the pIC50 in test [1] is 8.09; in test [2], 6.10; in test [3], 5.61; in test [4], 6.29; in test [5], 6.80.

As for `COc1cc(-c2cnc3cccc(-c4ccc(CC(=O)N5CCOCC5)cc4)c3n2)ccc1OCCCN1CCOCC1` [Example 83, 2-(4-{3-[3-Methoxy-4-(3-morpholin-4-yl-propoxy)-phenyl]-quinoxalin-5-yl}-phenyl)-1-morpholin-4-yl-ethanone], the pIC50 in test [1] was 8.20; in test [2], 6.05; in test [3], 5.68; in test [4], 6.57; in test [5] it was 7.47.

Take `COc1cc(-c2cnc3cccc(-c4cc(F)c(CN5CCOCC5)c(F)c4)c3n2)ccc1OCCCN1CCOCC1` [Example 84, 8-(3,5-Difluoro-4-morpholin-4-ylmethyl-phenyl)-2-[3-methoxy-4-(3-morpholin-4-yl-propoxy)-phenyl]-quinoxaline]: the pIC50 was 8.26 in test [1]; 6.01 in test [2]; 5.84 in test [3]; 6.57 in test [4]; 7.23 in test [5].

As for `COc1cc(-c2cnc3cccc(-c4ccc(CN5CCS(=O)(=O)CC5)c(F)c4)c3n2)ccc1OCCCN1CCOCC1` [Example 85, 8-[4-(1,1-Dioxido-thiomorpholin-4-ylmethyl)-3-fluoro-phenyl]-2-[3-methoxy-4-(3-morpholin-4-yl-propoxy)-phenyl]-quinoxaline], the pIC50 in test [1] was 8.49; in test [2], 6.66; in test [3], 6.62; in test [4] it was 6.94; in test [5], 7.90.

For `COc1cc(-c2cnc3cccc(-c4cc(F)c(CN5CCS(=O)(=O)CC5)c(F)c4)c3n2)ccc1OCCCN1CCOCC1` [Example 86, 8-[4-(1,1-Dioxido-thiomorpholin-4-ylmethyl)-3,5-difluoro-phenyl]-2-[3-methoxy-4-(3-morpholin-4-yl-propoxy)-phenyl]-quinoxaline], the pIC50 was > 8.52 in test [1]; 6.96 in test [2]; 7.03 in test [3]; 7.42 in test [4]; 8.18 in test [5].

As for `CN1CCN(c2ccc(-c3cnc4cccc(-c5cc(F)c(CN6CCOCC6)c(F)c5)c4n3)cc2)CC1` [Example 87, 8-(3,5-Difluoro-4-morpholin-4-ylmethyl-phenyl)-2-[4-(4-methyl-piperazin-1-yl)-phenyl]-quinoxaline], the pIC50 is 7.47 in test [1]; 5.46 in test [2]; 5.88 in test [3]; 6.14 in test [4]; 6.65 in test [5].

For the compound `CN1CCN(c2ccc(-c3cnc4cccc(-c5ccc(CC(=O)N6CCOCC6)c(F)c5)c4n3)cc2)CC1` [Example 88, 2-(2-Fluoro-4-{3-[4-(4-methyl-piperazin-1-yl)-phenyl]-quinoxalin-5-yl}-phenyl)-1-morpholin-4-yl-ethanone], the pIC50 in test [1] is 8.18; in test [2] it was 6.08; in test [3], 6.15; in test [4] it was 6.95; in test [5], 7.57.

Consider `CN1CCN(c2ccc(-c3cnc4cccc(-c5cc(F)c(C(=O)N6CCOCC6)c(F)c5)c4n3)cc2)CC1` [Example 89, (2,6-Difluoro-4-{3-[4-(4-methyl-piperazin-1-yl)-phenyl]-quinoxalin-5-yl}-phenyl)-morpholin-4-yl-methanone], for which the pIC50 was 7.47 in test [1]; 5.40 in test [2]; 5.87 in test [3]; 6.35 in test [4]; 6.87 in test [5].

Consider `CCN1CCN(Cc2ccc(-c3cnc4cccc(-c5cc(F)c(CN6CCOCC6)c(F)c5)c4n3)cc2C)CC1` [Example 92, 8-(3,5-Difluoro-4-morpholin-4-ylmethyl-phenyl)-2-[4-(4-ethyl-piperazin-1-ylmethyl)-3-methyl-phenyl]-quinoxaline], for which the pIC50 in test [1] is 7.37; in test [2], 5.31; in test [3] it was 5.67; in test [4] it was 5.44; in test [5] it was 5.86.

`CCN1CCN(Cc2ccc(-c3cnc4cccc(-c5ccc(CN6CCOCC6)c(F)c5)c4n3)cc2C)CC1` [Example 93, 2-[4-(4-Ethyl-piperazin-1-ylmethyl)-3-methyl-phenyl]-8-(3-fluoro-4-morpholin-4-ylmethyl-phenyl)-quinoxaline]: the pIC50 is 7.66 in test [1]; 5.90 in test [2]; 5.52 in test [3]; 6.17 in test [4]; 6.73 in test [5].

Usually pIC50 stands for the negative decadic logarithm of the IC50, by convention in mol/L.
